Experimental data: US11407749B2, “Heterocyclic compounds as immunomodulators” (Incyte Corporation, priority 2015, dated 2022)

The compounds below were run against PD-1/PD-L1 protein/protein interaction (Homo sapiens (Human), UniProt Q9NZQ7) (assay: PD-1/PD-L1 Homogeneous Time-Resolved Fluorescence (HTRF) Binding Assay). Settings: recombinant human PD-L1 (19-238)-His and PD-1 (25-167)-Fc, 25° C., PBS pH 7.4.
Experimental: Example A. PD-1/PD-L1 Homogeneous Time-Resolved Fluorescence (HTRF) Binding Assay
The assays were conducted in a standard black 384-well polystyrene plate with a final volume of 20 μL. Inhibitors were first serially diluted in DMSO and then added to the plate wells before the addition of other reaction components. The final concentration of DMSO in the assay was 1%. The assays were carried out at 25° C. in the PBS buffer (pH 7.4) with 0.05% Tween-20 and 0.1% BSA. Recombinant human PD-L1 protein (19-238) with a His-tag at the C-terminus was purchased from AcroBiosystems (PD1-H5229). Recombinant human PD-1 protein (25-167) with Fc tag at the C-terminus was also purchased from AcroBiosystems (PD1-H5257). PD-L1 and PD-1 proteins were diluted in the assay buffer and 10 μL was added to the plate well. Plates were centrifuged and proteins were preincubated with inhibitors for 40 minutes. The incubation was followed by the addition of 10 μL of HTRF detection buffer supplemented with Europium cryptate-labeled anti-human IgG (PerkinElmer-AD0212) specific for Fc and anti-His antibody conjugated to SureLight®-Allophycocyanin (APC, PerkinElmer-AD0059H). After centrifugation, the plate was incubated at 25° C. for 60 min. before reading on a PHERAstar FS plate reader (665 nm/620 nm ratio). Final concentrations in the assay were […], 10 nM PD-L1, 1 nM europium anti-human IgG and 20 nM anti-His-Allophycocyanin. IC50 determination was performed by fitting the curve of percent control activity versus the log of the inhibitor concentration using the GraphPad Prism 5.0 software.

PD-1/PD-L1 protein/protein interaction, sequence (Q9NZQ7 19-238): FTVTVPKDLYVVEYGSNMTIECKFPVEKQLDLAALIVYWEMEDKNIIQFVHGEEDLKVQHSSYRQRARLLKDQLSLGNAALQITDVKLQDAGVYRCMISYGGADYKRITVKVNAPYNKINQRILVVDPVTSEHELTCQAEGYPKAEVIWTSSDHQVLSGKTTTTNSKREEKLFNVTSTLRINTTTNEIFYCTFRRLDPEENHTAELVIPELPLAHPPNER

| Compound | IC50 [nM] |
| --- | --- |
| Cc1c(-c2ccccc2)cccc1-c1cc2cc(CN3CCCC[C@H]3C(=O)O)ccn2c1 [Example 3, (2S)-1-{[2-(2-methylbiphenyl-3-yl)indolizin-7-yl]methyl}piperidine-2-carboxylic acid] | 100 to 500 |
| Cc1c(-c2ccccc2)cccc1-c1cc2cc(CN3CCCC[C@H]3C(=O)O)ncn2c1 [Example 4, (2S)-1-{[6-(2-methylbiphenyl-3-yl)pyrrolo[1,2-c]pyrimidin-3-yl]methyl}piperidine-2-carboxylic acid] | 500 to 10000 |
| Cc1c(-c2ccccc2)cccc1-c1cn2cc(CN3CCCC[C@H]3C(=O)O)cc(C)c2n1 [Example 10, (S)-1-((8-methyl-2-(2-methylbiphenyl-3-yl)imidazo[1,2-a]pyridin-6-yl)methyl)piperidine-2-carboxylic acid] | 100 to 500 |
| Cc1c(-c2ccccc2)cccc1-c1cn2nc(CN3CCCC[C@H]3C(=O)O)ccc2n1 [Example 14, (S)-1-((2-(2-methylbiphenyl-3-yl)imidazo[1,2-b]pyridazin-6-yl)methyl)piperidine-2-carboxylic acid] | 500 to 10000 |
| Cc1c(-c2ccccc2)cccc1-c1nc2cc(CN3CCCC[C@H]3C(=O)O)ccn2n1 [Example 17, (2S)-1-{[2-(2-methylbiphenyl-3-yl)[1,2,4]triazolo[1,5-a]pyridin-7-yl]methyl}piperidine-2-carboxylic acid] | 100 to 500 |
| Cc1c(-c2ccccc2)cccc1-c1nc2ccc(CN3CCCC[C@H]3C(=O)O)cn2n1 [Example 19, (2S)-1-{[2-(2-methylbiphenyl-3-yl)[1,2,4]triazolo[1,5-a]pyridin-6-yl]methyl}piperidine-2-carboxylic acid] | 100 to 500 |
| COCCNc1cc(CNCCO)cn2nc(-c3cccc(-c4ccccc4)c3C)nc12 [Example 22, 2-({[8-[(2-methoxyethyl)amino]-2-(2-methylbiphenyl-3-yl)[1,2,4]triazolo[1,5-a]pyridin-6-yl]methyl}amino)ethanol] | 100 to 500 |
| Cc1c(-c2ccccc2)cccc1-c1nc2c(CCCC#N)cc(CNCCO)cn2n1 [Example 23, 4-[6-{[(2-hydroxyethyl)amino]methyl}-2-(2-methylbiphenyl-3-yl)[1,2,4]triazolo[1,5-a]pyridin-8-yl]butanenitrile] | ≤ 100 |
| N#Cc1c(-c2ccc3c(c2)OCCO3)cccc1-c1nc2c(Cl)cc(CNCCO)cn2n1 [Example 25, 2-(8-chloro-6-{[(2-hydroxyethyl)amino]methyl}[1,2,4]triazolo[1,5-a]pyridin-2-yl)-6-(2,3-dihydro-1,4-benzodioxin-6-yl)benzonitrile] | ≤ 100 |
| N#Cc1c(-c2ccc3c(c2)OCCO3)cccc1-c1nc2c(C#N)cc(CNCCO)cn2n1 [Example 26, 2-[2-cyano-3-(2,3-dihydro-1,4-benzodioxin-6-yl)phenyl]-6-{[(2-hydroxyethyl)amino]methyl}[1,2,4]triazolo[1,5-a]pyridine-8-carbonitrile] | ≤ 100 |
| N#CCc1cc(CNCCO)cn2nc(-c3cccc(-c4ccc5c(c4)OCCO5)c3C#N)nc12 [Example 27, 2-(8-(cyanomethyl)-6-{[(2-hydroxyethyl)amino]methyl}[1,2,4]triazolo[1,5-a]pyridin-2-yl)-6-(2,3-dihydro-1,4-benzodioxin-6-yl)benzonitrile] | ≤ 100 |

Further lines, results first:

| IC50 [nM] | Compound |
| --- | --- |
| 100 to 500 | Cc1c(-c2ccccc2)cccc1-c1cn2cc(CNCCO)ccc2n1 [Example 1, 2-({[2-(2-methylbiphenyl-3-yl)imidazo[1,2-a]pyridin-6-yl]methyl}amino)ethanol] |
| 100 to 500 | Cc1c(-c2ccccc2)cccc1-c1cc2cc(CNCCO)ccn2c1 [Example 2, 2-({[2-(2-methylbiphenyl-3-yl)indolizin-7-yl]methyl}amino)ethanol] |
| ≤ 100 | Cc1c(-c2ccccc2)cccc1-c1cn2nc(CNCCO)cnc2n1 [Example 5, 2-((6-(2-methylbiphenyl-3-yl)imidazo[1,2-b][1,2,4]triazin-2-yl)methylamino)ethanol] |
| 100 to 500 | Cc1c(-c2ccccc2)cccc1-c1cn2nc(CNCC#N)cnc2n1 [Example 6, 2-((6-(2-methylbiphenyl-3-yl)imidazo[1,2-b][1,2,4]triazin-2-yl)methylamino)acetonitrile] |
| 100 to 500 | Cc1c(-c2ccccc2)cccc1-c1cn2nc(CNCC(N)=O)cnc2n1 [Example 7, 2-((6-(2-methylbiphenyl-3-yl)imidazo[1,2-b][1,2,4]triazin-2-yl)methylamino)acetamide] |
| 100 to 500 | Cc1c(-c2ccccc2)cccc1-c1cn2nc(CN(C)CCO)cnc2n1 [Example 8, 2-(methyl((6-(2-methylbiphenyl-3-yl)imidazo[1,2-b][1,2,4]triazin-2-yl)methyl)amino)ethanol] |
| 100 to 500 | Cc1c(-c2ccccc2)cccc1-c1cn2cc(CNCCO)cc(C)c2n1 [Example 9, 2-((8-methyl-2-(2-methylbiphenyl-3-yl)imidazo[1,2-a]pyridin-6-yl)methylamino)ethanol] |
| 100 to 500 | Cc1c(-c2ccccc2)cccc1-c1cn2cc(CNCCO)cc(Cl)c2n1 [Example 11, 2-((8-chloro-2-(2-methylbiphenyl-3-yl)imidazo[1,2-a]pyridin-6-yl)methylamino)ethanol] |
| 100 to 500 | Cc1c(-c2ccccc2)cccc1-c1cn2cc(CNCCO)cnc2n1 [Example 12, 2-({[2-(2-methylbiphenyl-3-yl)imidazo[1,2-a]pyrimidin-6-yl]methyl}amino)ethanol] |
| ≤ 100 | Cc1c(-c2ccccc2)cccc1-c1cn2cc(CNCCO)ncc2n1 [Example 13, 2-({[2-(2-methylbiphenyl-3-yl)imidazo[1,2-a]pyrazin-6-yl]methyl}amino)ethanol] |
| 100 to 500 | Cc1c(-c2ccccc2)cccc1-c1cn2nc(CNCCO)ccc2n1 [Example 15, 2-({[2-(2-methylbiphenyl-3-yl)imidazo[1,2-b]pyridazin-6-yl]methyl}amino)ethanol] |
| ≤ 100 | Cc1c(-c2ccccc2)cccc1-c1nc2cc(CNCCO)ccn2n1 [Example 16, 2-({[2-(2-methylbiphenyl-3-yl)[1,2,4]triazolo[1,5-a]pyridin-7-yl]methyl}amino)ethanol] |
| ≤ 100 | Cc1c(-c2ccccc2)cccc1-c1nc2ccc(CNCCO)cn2n1 [Example 18, 2-({[2-(2-methylbiphenyl-3-yl)[1,2,4]triazolo[1,5-a]pyridin-6-yl]methyl}amino)ethanol] |
| ≤ 100 | Cc1c(-c2ccccc2)cccc1-c1nc2cc(CNCCO)nc(C)n2n1 [Example 20, 2-({[5-methyl-2-(2-methylbiphenyl-3-yl)[1,2,4]triazolo[1,5-c]pyrimidin-7-yl]methyl}amino)ethanol] |
| ≤ 100 | Cc1c(-c2ccccc2)cccc1-c1nc2c(Cl)cc(CNCCO)cn2n1 [Example 21, 2-({[8-chloro-2-(2-methylbiphenyl-3-yl)-[1,2,4]triazolo[1,5-a]pyridin-6-yl]methyl}amino)ethanol] |
| ≤ 100 | Cc1c(-c2ccccc2)cccc1-c1nc2c(CC#N)cc(CNCCO)cn2n1 [Example 24, [6-{[(2-hydroxyethyl)amino]methyl}-2-(2-methylbiphenyl-3-yl)[1,2,4]triazolo[1,5-a]pyridin-8-yl]acetonitrile] |
